Experimental data from patent publication US6806230B1, “Pyrimidine derivatives and herbicides containing them” (Kumiai Chemical Industry Co., Ltd., priority 1999, dated 2004).

Assays:
Format in all cases: in vivo
barnyard grass (Eo) [1] = experiment: Test Example 1: herbicidal effects by flooded paddy field treatment; design: herbicidal effects, Eo (barnyard grass):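 0-5 growth inhibition grade; 5 = over 90%; 4 = 70-90%; 3 = 50-70%; 2 = 30-50%; 1 = 10-30%; 0 = under 10%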; conditions: for herbicidal effects, Eo (barnyard grass): dose 100 g active ingredient per 10 ares, examined on the 21st day after treatment, standards of Table 44;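 on Herbicidal effect index, Eo: 0-5 growth inhibition grade; 5 = over 90%; 4 = 70-90%; 3 = 50-70%; 2 = 30-50%; 1 = 10-30%; 0 = under 10%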
Summary of the method: (§1)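 Herbicidal effect scored 21 days post-treatment after greenhouse cultivation. Treatment was applied dropwise to the water surface, one day after sowing, as a diluted wettable powder (100 g a.i./10 ares). Pots held puddled paddy soil under 3 cm water.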

barnyard grass (Ec) [2] = experiment: Test Example 3: herbicidal effects by foliage treatment in upland field; design: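 0-5 growth inhibition grade; 5 = over 90%; 4 = 70-90%; 3 = 50-70%; 2 = 30-50%; 1 = 10-30%; 0 = under 10%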; conditions: dose 100 g active ingredient per 10 ares, examined on the 14th day after treatment
Experimental: In a 80 cm^2 plastic pot, upland soil was filled, and seeds of barnyard grass (Ec) and green foxtail (Se) were sown and cultured in a green house for 2 weeks. Then, a wettable powder prepared in accordance with Formulation Example 1 was diluted with water and applied to the entire foliage from above the plants by means of a small size spray at a rate of 100 l per 10 ares so that the dose of the active ingredient would be 100 g per 10 ares. Thereafter, cultivation was carried out in a green house, and on the 14th day after the treatment, the herbicidal effects were examined in accordance with the standards of Table 44.

monochoria (Mo) [3] = experiment: Test Example 1: herbicidal effects by flooded paddy field treatment; design: herbicidal effects, Mo (monochoria):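 0-5 growth inhibition grade; 5 = over 90%; 4 = 70-90%; 3 = 50-70%; 2 = 30-50%; 1 = 10-30%; 0 = under 10%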; conditions: for herbicidal effects, Mo (monochoria): dose 100 g active ingredient per 10 ares, examined on the 21st day after treatment, standards of Table 44;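 on Herbicidal effect index, Mo: 0-5 growth inhibition grade; 5 = over 90%; 4 = 70-90%; 3 = 50-70%; 2 = 30-50%; 1 = 10-30%; 0 = under 10%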
Summary of the method: as §1

barnyard grass (Ec) [4] = experiment: Test Example 2: herbicidal effects by upland soil treatment; design: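 0-5 growth inhibition grade; 5 = over 90%; 4 = 70-90%; 3 = 50-70%; 2 = 30-50%; 1 = 10-30%; 0 = under 10%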; conditions: dose 100 g active ingredient per 10 ares, examined on the 21st day after treatment
Summary of the method: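 Pre-emergence test: barnyard grass and green foxtail sown in upland soil, then soil surface sprayed with wettable-powder formulation at 100 g active ingredient per 10 ares (100 l per 10 ares). Grown in greenhouse; herbicidal effect scored on a rating scale 21 days after treatment.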

barnyard grass (Eo) [5] = experiment: Test Example 4: selectivity for a crop plant by flooded paddy field treatment; design: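 0-5 growth inhibition grade; 5 = over 90%; 4 = 70-90%; 3 = 50-70%; 2 = 30-50%; 1 = 10-30%; 0 = under 10%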; conditions: barnyard grass, dose 25 gai/10a, 21st day after treatment, index per Table 44
Summary of the method: (§2)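 Flooded-paddy treatment: the wettable powder formulation, diluted in water, was applied dropwise to 3 cm floodwater at 25 g a.i./10 ares one day after sowing barnyard grass and monochoria and transplanting rice at the second leaf stage. Greenhouse grown; herbicidal effect rated against set standards on day 21.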

rice (Or) = experiment: as above; design: scale not given here; conditions: rice transplanted at second leaf stage, dose 25 gai/10a, 21st day after treatment, index per Table 44
Summary of the method: as §2

monochoria (Mo) [6] = experiment: as above; design: scale not given here; conditions: monochoria, dose 25 gai/10a, 21st day after treatment, index per Table 44
Summary of the method: as §2

[7] = dose 100 gai/10a, examined on 21st day after treatment, index 0-5 per Table 44

| SMILES | herbicidal effects, Eo (barnyard grass) (barnyard grass (Eo) [1]) | Ec (herbicidal effects, index) (barnyard grass (Ec) [2]) | herbicidal effects, Mo (monochoria) (monochoria (Mo) [3]) | Ec (herbicidal effects, index) (barnyard grass (Ec) [4]) | Herbicidal effect index, Eo (barnyard grass (Eo) [1]; [7]) | Herbicidal effect index, Mo (monochoria (Mo) [3]; [7]) | Eo (herbicidal effect index) (barnyard grass (Eo) [5]) | Or (herbicidal effect index on crop) (rice (Or)) | Mo (herbicidal effect index) (monochoria (Mo) [6]) |
| --- | --- | --- | --- | --- | --- | --- | --- | --- | --- |
| CCCC(c1cncnc1C(C)C)N(C)C(=O)Cc1ccc(Cl)cc1 (racemic) [1-451] | 5 | 4 | 5 | 5 |  |  |  |  |  |
| CCc1ncncc1C(C(C)C)N(C)C(=O)N(C)c1ccccc1 (racemic) [1-538] | 5 | 4 | 5 | 5 |  |  |  |  |  |
| Cc1ccc(N(C)C(=O)N(C)C(c2cncnc2C(F)(F)F)C(C)C)cc1 (racemic) [1-428] | 5 | 4 | 5 | 5 |  |  |  |  |  |
| CC(C)c1ncncc1C(C(C)C)N(C)C(=O)Cc1ccc(F)cc1 (racemic) [Compound 1-129] | 5 | 5 | 5 |  |  |  |  |  |  |
| CCc1ncncc1C(C(C)C)N(C)C(=O)Oc1ccc(Cl)cc1 (racemic) [1-642] |  | 4 |  | 4 |  |  |  |  |  |
| C#CCN(C(=O)Cc1ccc(C)cc1)C(c1cncnc1CCC)C(C)C (racemic) [1-619] |  | 4 |  | 5 |  |  |  |  |  |
| CCCC(c1cncnc1C(F)(F)F)N(C)C(=O)Cc1ccccc1 (racemic) [Compound 1-111] |  | 4 |  |  | 5 | 4 |  |  |  |
| C#CCN(C(=O)Cc1ccsc1)C(c1cncnc1C(C)C)C(C)C (racemic) [2-79] |  | 4 |  | 5 |  |  |  |  |  |
| O=C(Cc1ccccc1)NC(c1cncnc1C(F)(F)Cl)C1CC1 (racemic) [Compound 1-1] |  | 4 |  |  |  |  |  |  |  |
| C#CCN(C(=O)Cc1ccc(F)cc1)C(c1cncnc1C(C)C)C(C)C (racemic) [1-622] |  | 4 |  | 4 |  |  |  |  |  |
| CC(C(=O)N(C)C(c1cncnc1C#N)C(C)C)c1ccc(Cl)cc1 (mixture of isomers) [1-508] |  | 4 |  | 5 |  |  |  |  |  |
| COC(C)(OC)C(c1cncnc1C(C)C)N(C)C(=O)Cc1ccc(Cl)cc1 (racemic) [1-511] | 5 |  | 5 | 4 |  |  | 5 | 0 | 5 |
| CCc1ncncc1C(N(C)C(=O)Cc1ccc(C)cc1)C(C)(C)C (racemic) [1-567] | 5 |  | 5 | 5 |  |  | 5 | 1 | 5 |
| CN(C(=O)Cc1ccsc1)C(c1ccccc1)c1cncnc1C(F)(F)F (racemic) [2-20] | 5 |  | 5 | 5 |  |  | 5 | 1 | 5 |
| CCN(C(=O)Cc1cccs1)C(c1cncnc1C(F)F)C(C)C (racemic) [2-7] | 5 |  | 5 | 5 |  |  | 5 | 1 | 5 |
| C#CCN(C(=O)Cc1ccc(Cl)cc1)C(CCC)c1cncnc1CC (racemic) [1-608] | 5 |  | 5 | 5 |  |  | 5 | 1 | 5 |
| COC1(C(c2cncnc2C(C)C)N(C)C(=O)Cc2ccc(C)cc2)OCCO1 (racemic) [1-604] | 5 |  | 5 | 5 |  |  | 5 | 1 | 5 |
| CN(C(=O)Cc1ccc(F)cc1)C(c1cccs1)c1cncnc1C(F)(F)F (racemic) [1-234] | 5 |  | 5 | 5 |  |  | 5 | 1 | 5 |
| Cc1ccc(CC(=O)N(CC#N)C(c2cncnc2C(F)(F)F)C(C)C)cc1 (racemic) [1-483] | 5 |  | 5 | 5 |  |  | 5 | 1 | 5 |
| Cc1ccc(CC(=O)N(C)C(c2ccsc2)c2cncnc2C(F)(F)F)cc1 (racemic) [1-443] | 5 |  | 5 | 5 |  |  | 5 | 1 | 5 |
| CCN(C(=O)Cc1ccc(Cl)cc1F)C(c1cncnc1C(F)(F)F)C(C)C (racemic) [1-321] | 5 |  | 5 | 5 |  |  | 5 | 1 | 5 |
| CCOc1ncncc1C(C(C)C)N(C)C(=O)Cc1ccc(Cl)cc1 (racemic) [1-661] |  | 5 |  |  |  |  |  |  |  |
| C#CCN(C(=O)Cc1ccc(F)cc1)C(c1cncnc1CCC)C(C)C (racemic) [1-617] |  | 4 |  | 5 |  |  |  |  |  |
| CN(C(=O)Cc1ccc(Cl)s1)C(c1cncnc1C(F)(F)F)C1(C)CC1 (racemic) [2-58] | 5 |  | 5 | 5 |  |  | 5 | 1 | 5 |
| COc1ccc(C(c2cncnc2C(F)(F)F)N(C)C(=O)Cc2ccc(F)cc2)cc1 (racemic) [1-485] | 5 |  | 5 | 5 |  |  | 5 | 1 | 5 |
| Cc1ccc(CC(=O)N(C)C(c2ccccc2F)c2cncnc2C(F)(F)F)cc1 (racemic) [1-549] | 5 |  | 5 | 5 |  |  | 5 | 0 | 5 |
| CCCc1ncncc1C(CCC)N(C)C(=O)Cc1ccc(C)cc1 (racemic) [1-495] | 5 |  | 5 | 5 |  |  | 5 | 0 | 5 |
